Key:
[1] = solubility of NDAC relative to cystine; type: physicochemical
skin cells = test: potentiating glutathione synthesis within skin cells; type: cell-based; details: compared with cystine
[2] = organic solvents such as alcohols, ethers, esters, ketones; cited from earlier work

solubility compared with cystine [1] | SMILES | performance for potentiating glutathione synthesis within skin cells (skin cells) | solubility in organic solvents [2]
more soluble | CC(=O)N[C@@H](CSSC[C@H](NC(C)=O)C(=O)O)C(=O)O [NDAC, N,N′-diacetyl-L-cystine] | comparable to that of cystine | 
 | N[C@@H](CSSC[C@H](N)C(=O)O)C(=O)O [cystine, L-Cystine] |  | practically insoluble

— patent US20230250055A1, “PROCESS OF MAKING N,N-DIACETYL-L-CYSTINE DISODIUM SALT FROM CYSTINE AND ACETYL CHLORIDE IN METHANOL IN THE PRESENCE OF SODIUM HYDROXIDE” (Conopco, Inc., d/b/a UNILEVER, priority 2020, published 2023)
